Experimental data from paper PMC10566475, “A cell-active cyclic peptide targeting the Nrf2/Keap1 protein–protein interaction” (Chemical Science, 2023).
*1 amine or outer side, *2 acyl side, *3 side chain or, on linkers, in order; H or OH if unused. Where a SMILES comes first, the peptide text is derived from it. Bridges are numbered along the chain shown (N, C = ends). Roman numbers before positions name the chains, in order. [ ]: non-standard residue; d: D form. X3 = CCCCCCCCCCCCCCCCCC(=O)NCCCC[C@H](NC(=O)COCCOCCNC(=O)COCCOCCn1cc(COCCOCCNc2nc(CC[*:1])cc(CC[*:2])n2)nn1)C(=O)NCCOCCOCC(=O)NCCOCCOCC(N)=O; X2 = O=C(CCCCn1cc(COCCOCCNc2nc(CC[*:1])cc(CC[*:2])n2)nn1)[*:3]

Assays:
BEAS-2B cells = experiment: CellTiter Glo assay; conditions: P8-H tested up to 30 μM
From the text: performed according to manufacturer instruction and using BEAS-2B cells

[1] = system: NQO1 gene expression in BEAS-2B cells (Homo sapiens); experiment: BEAS-2B NQO1 assay (qPCR of NQO1 mRNA); format: cell-based; conditions: 24 h, concentrations of up to 10 μM
From the text: The effect of peptides on Nrf2-dependent gene expression was investigated in BEAS-2B cells, where we determined the upregulation of the mRNA of NAD(P)H quinone dehydrogenase (NQO1) by qPCR. The expression of NQO1 is Nrf2-dependent and it is one of the two major quinone reductases, which play a crucial role in protecting cells from oxidative stress.[40] ^§§ In the context of this study we chose BEAS-2B cells as a representative model for epithelial cells. The presence of serum has been reported to affect BEAS-2B cell phenotype. Specifically, exposure of BEAS-2B to FBS has been associated with squamous differentiation, alteration in cytokine secretion and response to toxicants.[42–44] […] In order to improve the cellular uptake, we took of advantage of the 2C-PS moiety, which not only allows the easy synthesis of a variety of macrocycles of different ring sizes, but also permits the facile introduction of a diverse set of moieties, which could enhance cell permeability. We pursued a diverse set of strategies to make the Keap1 peptide more cell permeable, namely: masking of the acidic amino acids with methyl esters, introduction of polyarginine peptides, GWWG-polyarginine peptides or a long-chain fatty acid tag onto the staple, as well as peptide shortening and a combination of these. The rationale behind these strategies is explained herein, and details of their synthesis can be found in the ESI. ^†
Cellular Biology Experimental
(Thermo Fisher Scientific, USA).
calculated using QunatStudio 7 software.

[2] = target: T1, interaction between the human Keap1 Kelch domain and an Nrf2-ETGE peptide (Homo sapiens, UniProt Q14145); experiment: Keap1-Nrf2 TR-FRET (HTRF) assay; format: binding; conditions: Table 1; geometric mean ± sd of at least 3 independent repeats unless stated; read-out: TR-FRET IC50
T1 construct: 1nM purified human Keap1 Kelch domain (A321-T609) fused with N-terminal 6x His-tag; made in house
From the text: (§1) We based the design of our Nrf2-like cyclic peptides around the amino acid sequence of the ETGE motif (namely 12-mer ^73[…]^84L) and SAR studies reported in the literature.[9,10,12,14] The […] motif is known to adopt a beta-turn conformation upon binding to Keap1. Residues Q73-Q75 and L85 stabilise the bound conformation, L76-D77 and E79-G81 bind deep into the pocket with E79 and E82 forming electrostatic interactions with Keap1 and D77 and T80 stabilising the beta-turn via H-bonds with E78 not contributing to the binding. […] The ability of the cyclic peptides to bind to the Kelch domain of Keap1 was evaluated using surface plasma resonance (SPR), where the Kelch domain is immobilised onto a SPR sensor chip. Additionally, we assessed the ability of the peptides to inhibit the PPI between Nrf2 and the Kelch domain of Keap1 using a time-resolved FRET (TR-FRET) assay. Here, the IC50 for inhibition of the interaction between the human Keap1 Kelch domain and an Nrf2-ETGE peptide is measured.
(§2) Surface Plasmon Resonance (SPR)
(§3) Peptide affinities to the Kelch domain of Keap1 is determined in a direct binding assay using 8K surface plasmon resonance (SPR) biosensor (Cytiva) at 20°C. Immobilization of Keap1 Kelch domain on a CM5 sensor chip (Cytiva) is performed using standard amine coupling procedure. The surface is washed with 10mM NaOH, 1M NaCl before activated with EDC/NHS (Cytiva), followed by immobilization of human Keap1 Kelch domain (A321-T609) fused with N-terminal 6x His-tag7 (in 10 mM MES, pH=6.4).
(§4) Finally, the surface is deactivated by Ethanolamine. Immobilization levels are typically 5000-6000 RU.
(§5) The reference spot is treated as described, omitting the injection of Keap1. Compound concentration series are injected over the immobilized protein in increasing concentrations using single cycle kinetics (SCK) in running buffer (10 mM HEPES, 150 mM NaCl, 0.05% Tween20, 1 mM TCEP, pH 7.4). A 1:1 Langmuir interaction model is fitted to the experimental traces, enabling determination of kon, koff and […]
(§6) In the time-resolved Förster resonance energy transfer (TR-FRET) assay8 the IC50 of inhibitors which […]
(§7) are determined. The TR-FRET is measured between a Tb-labelled mAb (Anti—6-His, Tb cryptate Gold, CisBio 61H12TLB) that binds to Keap 1 Kelch domain and d2-labelled SA-biotin-peptide.
(§8) The assay was performed in 384-well white low-volume, medium binding plates (Greiner Bio One, Austria) in 20 mM HEPES pH 7.5, 150 mM NaCl, 2 mM GSH (Sigma-Aldrich, USA),1mM EDTA (Sigma-Aldrich, USA), and 0.01% Pluronic F127 (MilliporeSigma, USA), with a final reaction volume of 10 µL.
(§9) To determine the ability of synthesized peptide to inhibit PPI between the Keap1 Kelch domain and Nrf2, 1nM purified human Keap1 Kelch domain (A321-T609) fused with N-terminal 6x His-tag, 5 nM biotinylated Nrf2 peptide ([…], Genescript, USA), d2-labeled streptavidin (Revvity, USA), and […] anti-His monoclonal antibody tagged with terbium cryptate (Revvity, USA), were incubated in the presence of varying concentrations of investigated peptides for 3 h at room […]
(§10) 7 Li X, Zhang D, Hannink M, Beamer LJ. Crystallization and initial crystallographic analysis of the Kelch domain from human Keap1. Acta
(§11) 8 S. Lee, D. Ali Abed, L. J. Beamer, L. Hu, Development of a Homogeneous Time-Resolved Fluorescence Resonance Energy Transfer (TR-
Following the incubation, the PHERAstar FSX […] microplate reader was used to measure the acceptor and donor emissions at 665 nm and 620 nm, respectively. The acceptor/donor ratio was used to calculate relative energy transfer. Data was normalized by two-point normalization using neutral and inhibitor controls (neutral control: DMSO, inhibitor control: 0.1nM 2-[[4-[carboxymethyl-(4-methoxyphenyl)sulfonylamino]naphthale n-1-yl]-(4-methoxyphenyl)sulfonylamino]acetic acid; […]
parameter logistic fit and IC50 values were calculated using Genedata screener software (Genedata, […]

[3] = target: T2, human Keap1 Kelch domain (A321-T609) (Homo sapiens, UniProt Q14145); experiment: Surface plasmon resonance (SPR) direct binding assay, immobilised Keap1 Kelch domain; conditions: Table 1
T2 construct: human Keap1 Kelch domain (A321-T609) fused with N-terminal 6x His-tag; 6xHis (N); made in house
From the text: as §1, §2, §3, §4, §5, §6, §7, §8, §9, §10, §11

[4] = single cycle kinetics, 1:1 Langmuir model

NQO1 gene expression in BEAS-2B cells (Homo sapiens), sequence (Q14145 whole entry): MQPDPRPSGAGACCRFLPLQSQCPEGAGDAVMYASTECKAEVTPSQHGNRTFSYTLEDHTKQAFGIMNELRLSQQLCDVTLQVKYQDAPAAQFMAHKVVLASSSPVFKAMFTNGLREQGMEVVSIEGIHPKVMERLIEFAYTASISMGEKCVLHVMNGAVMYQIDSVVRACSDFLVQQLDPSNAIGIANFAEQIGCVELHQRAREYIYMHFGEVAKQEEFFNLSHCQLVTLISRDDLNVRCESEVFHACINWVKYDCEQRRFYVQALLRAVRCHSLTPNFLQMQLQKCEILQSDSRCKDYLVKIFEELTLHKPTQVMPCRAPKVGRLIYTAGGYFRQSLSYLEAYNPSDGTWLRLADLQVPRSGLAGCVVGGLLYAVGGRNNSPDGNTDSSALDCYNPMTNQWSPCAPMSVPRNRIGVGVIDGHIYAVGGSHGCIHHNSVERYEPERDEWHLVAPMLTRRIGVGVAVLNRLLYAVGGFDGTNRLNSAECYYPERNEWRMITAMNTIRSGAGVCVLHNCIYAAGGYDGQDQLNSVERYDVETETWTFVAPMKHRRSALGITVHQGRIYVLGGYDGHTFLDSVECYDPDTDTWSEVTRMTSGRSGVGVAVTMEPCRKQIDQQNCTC
T2 sequence (Q14145 321-609): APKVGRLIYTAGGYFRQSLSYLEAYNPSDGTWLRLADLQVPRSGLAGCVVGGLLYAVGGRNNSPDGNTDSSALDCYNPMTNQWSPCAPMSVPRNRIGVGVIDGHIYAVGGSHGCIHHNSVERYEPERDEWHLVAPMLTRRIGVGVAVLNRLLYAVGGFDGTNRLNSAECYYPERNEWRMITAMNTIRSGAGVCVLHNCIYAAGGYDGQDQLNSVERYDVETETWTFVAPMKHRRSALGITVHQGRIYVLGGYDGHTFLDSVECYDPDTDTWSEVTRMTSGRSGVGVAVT
T1 sequence (Q14145 321-609): as above

Row | Compound | cytotoxicity in CellTiter Glo assay (BEAS-2B cells) | induction of NQO1 mRNA (Nrf2-dependent gene expression) [1] | other results
1 | CCCCCCCCCCCCCCCCCC(=O)NCCCC[C@H](NC(=O)COCCOCCn1cc(COCCOCCNc2nc3cc(n2)CCSC[C@@H](C(=O)N[C@@H](CC(C)C)C(N)=O)NC(=O)[C@H](CCC(=O)O)NC(=O)CNC(=O)[C@H]([C@@H](C)O)NC(=O)[C@H](CCC(=O)O)NC(=O)[C@@H]2CCCN2C(=O)[C@H](CC(=O)O)NC(=O)[C@@H](NC(C)=O)CSCC3)nn1)C(=O)NCCOCCOCC(=O)NCCOCCOCC(N)=O [Peptide P8-H] | no cytotoxicity |  | 
2 | CC(=O)N[C@H]1CSCCc2cc(nc(NCCOCCOCc3cn(CCCCC(=O)NCC(=O)N[C@@H](Cc4c[nH]c5ccccc45)C(=O)N[C@@H](Cc4c[nH]c5ccccc45)C(=O)NCC(=O)N[C@H](CCCNC(=N)N)C(=O)N[C@H](CCCNC(=N)N)C(=O)N[C@H](CCCNC(=N)N)C(N)=O)nn3)n2)CCSC[C@@H](C(=O)N[C@@H](CC(C)C)C(N)=O)NC(=O)[C@H](CCC(=O)O)NC(=O)CNC(=O)[C@H]([C@@H](C)O)NC(=O)[C@H](CCC(=O)O)NC(=O)[C@@H]2CCCN2C(=O)[C@H](CC(=O)O)NC1=O [Peptide P8-G] |  | did not lead to any activity | 
3 | Ac-LQLDPETGEFL-NH2 [reference compound] |  | did not lead to any induction | IC50 [2]: 5.3 ± 1.2 nM; Kd ([3]; geometric mean ± sd of at least 3 independent repeats unless stated, 20°C): 52 ± 1.4 nM; koff [3, 4]: 0.0079 s⁻¹; kon [3, 4]: 170000 M⁻¹ s⁻¹
4 | CC1(C)CC[C@]2(C(=O)O)CC[C@]3(C)[C@H](C(=O)C=C4[C@@]5(C)C=C(C#N)C(=O)C(C)(C)[C@@H]5CC[C@]43C)[C@@H]2C1 [Bardoxolone, reference compound] | cytotoxic |  | 
5 | CCCCCCCCCCCCCCCCCC(=O)NCCCC[C@H](NC(=O)COCCOCCNC(=O)COCCOCCn1cc(COCCOCCNc2nc3cc(n2)CCSC[C@@H](C(=O)N[C@@H](CC(C)C)C(N)=O)NC(=O)[C@H](CCC(=O)O)NC(=O)CNC(=O)[C@H]([C@@H](C)O)NC(=O)[C@H](CCC(=O)O)NC(=O)[C@@H]2CCCN2C(=O)[C@H](CC(=O)O)NC(=O)[C@H](CC(C)C)NC(=O)[C@H](CCC(N)=O)NC(=O)[C@H](CC(C)C)NC(=O)[C@@H](NC(C)=O)CSCC3)nn1)C(=O)NCCOCCOCC(=O)NCCOCCOCC(N)=O [Peptide P3-H] (Ac-CLQLDPETGECL-NH2; linker 1-11 via X3) |  | did not induce Nrf2-dependent gene expression | 
6 | CC(=O)N[C@H]1CSCCc2cc(nc(NCCOCCOCc3cn(CCCCC(=O)NCC(=O)N[C@@H](Cc4c[nH]c5ccccc45)C(=O)N[C@@H](Cc4c[nH]c5ccccc45)C(=O)NCC(=O)N[C@H](CCCNC(=N)N)C(=O)N[C@H](CCCNC(=N)N)C(=O)N[C@H](CCCNC(=N)N)C(N)=O)nn3)n2)CCSC[C@@H](C(=O)N[C@@H](CC(C)C)C(N)=O)NC(=O)[C@H](CCC(=O)O)NC(=O)CNC(=O)[C@H]([C@@H](C)O)NC(=O)[C@H](CCC(=O)O)NC(=O)[C@@H]2CCCN2C(=O)[C@H](CC(=O)O)NC(=O)[C@H](CC(C)C)NC(=O)[C@H](CCC(N)=O)NC(=O)[C@H](CC(C)C)NC1=O [Peptide P3-G] (I: Ac-CLQLDPETGECL-NH2 / II: GWWG[dR][dR][dR]-NH2; linker I:1-I:11-II:N via X2) |  | no activity was detected | 
